# Like-named read-outs stand apart in the source and are kept apart here. Marks after values point to notes of the source that are not given here.
# Tests used:
# [1] = system: HIV-1 (laboratory strain NL4-3); test: microbe, parasite or virus in culture; type: cell-based
# Procedure: The cell lines were maintained under standard cell culture conditions at 37 °C and 5% CO2 in a humid environment. Cells were subcultured twice or three times a week using the standard trypsinization procedure.
# Bacillus cereus = test: Antimicrobial screening, resazurine test; type: cell-based; conditions: Bacillus cereus, B. cereus, read-out: Inhibition of the microorganism; for inhibition at 25 µg/mL: c = 25 µg·mL-1; for inhibition at 50 µg/mL: c = 50 µg·mL-1; for inhibition at 100 µg/mL: c = 100 µg·mL-1
# Procedure: (§1) The resazurine test was used to evaluate this activity.
# (§2) The cell inoculum was made in Mueller–Hinton broth (10 mL). Colonies of cells were inoculated from the solid medium that was cultivated for 24 h under optimum conditions. A part of the inoculum was diluted to get suspension with an optical density 0.6 to 0.9 McF. An aliquot amount (1 mL) was taken and diluted with additional volume of the medium (19 mL). The stored solutions of the tested compounds were made at a concentration c = 200 µg.mL^−1. The stored suspensions of the cells, MHB medium, solutions of the antibiotics specific for the given bacteria (vancomycin for S. aureus and E. faecalis, kanamycin for E. coli and P. aeruginosa, and tetracycline for B. cereus), and the solutions of the compounds were pipetted into the microtitration plates. Subsequently, a concentration sequence of the tested compounds was made (c = 100, 50, and 25 µg.mL^−1). The content of the microtitration plates was cultivated for 24 h under optimum conditions for the given bacteria. A solution of resazurine was made, based on a dilution of its stored solution (c = 0.15 mg.mL^−1; 2 mL) into the MHB medium (18 mL). Then, it was pipetted into the microtitration plates that were cultivated for an additional 1 h. Finally, fluorescence measurement (excitation at 560 nm, emission at 590 nm) was made, and the inhibition of the bacterium was determined.
# (§3) 2. Antimicrobial screening tests
# (§4) Antimicrobial activity of the target molecular ribbons 8a, 12a, 8b, 12b, 4c, 6c, 6d and 8d, and […]
# (§5) aeruginosa, Staphylococcus aureus and Enterococcus faecalis. The resazurine test was used to […]
# (§6) ribbons which have been achieved in this investigation.
# (§7) Table S1. Antimicrobial activity, inhibition of the microorganism [%]
# (§8) Comp. Staphylococcus aureus Comp. Escherichia coli […]
# (§9) µg·mL-1 µg·mL-1 µg·mL-1 µg·mL-1 µg·mL-1 µg·mL-1
# (§10) Comp. Bacillus cereus Comp. Pseudomonas aeruginosa
# Enterococcus faecalis = test: Antimicrobial screening, resazurine test; type: cell-based; conditions: E. faecalis; for inhibition at 25 µg/mL / inhibition at 50 µg/mL / inhibition at 100 µg/mL: Enterococcus faecalis, read-out: Inhibition of the microorganism; for inhibition at 50 µg/mL: c = 50 µg·mL-1; for inhibition at 100 µg/mL: c = 100 µg·mL-1
# Procedure: as §1, §2, §3, §4, §5, §6, §7, §8, §9, §10
# Escherichia coli = test: Antimicrobial screening, resazurine test; type: cell-based; conditions: E. coli; for inhibition at 25 µg/mL / inhibition at 50 µg/mL / inhibition at 100 µg/mL: Escherichia coli, read-out: Inhibition of the microorganism; for inhibition at 50 µg/mL: c = 50 µg·mL-1; for inhibition at 100 µg/mL: c = 100 µg·mL-1
# Procedure: as §1, §2, §3, §4, §5, §6, §7, §8, §9, §10
# Pseudomonas aeruginosa = test: Antimicrobial screening, resazurine test; type: cell-based; conditions: P. aeruginosa; for inhibition at 25 µg/mL: c = 25 µg·mL-1, read-out: Inhibition of the microorganism; for inhibition at 50 µg/mL: c = 50 µg·mL-1, read-out: Inhibition of the microorganism; for inhibition at 100 µg/mL: c = 100 µg·mL-1, read-out: Inhibition of the microorganism
# Procedure: as §1, §2, §3, §4, §5, §6, §7, §8, §9, §10
# Staphylococcus aureus = test: Antimicrobial screening, resazurine test; type: cell-based; conditions: S. aureus; for inhibition at 25 µg/mL / inhibition at 50 µg/mL / inhibition at 100 µg/mL: Staphylococcus aureus, read-out: Inhibition of the microorganism; for inhibition at 50 µg/mL: c = 50 µg·mL-1; for inhibition at 100 µg/mL: c = 100 µg·mL-1
# Procedure: as §1, §2, §3, §4, §5, §6, §7, §8, §9, §10
# [2] = Ability to form supramolecular gel; type: physicochemical; conditions: 1% w/v in solvent, ultrasound 30 min, heated to boiling, cooled to r.t. 24 h
# Procedure: The solutions of the studied compounds 8a, 12a, 8b, 12b, 4c, 6c, 6d, and 8d (1%, w/v) in the appropriate solvent were mixed with ultrasound for 30 min, then heated to the boiling points of the used solvents, and then allowed to cool down to the r.t. for 24 h. An example of the resulting gels that were produced from 8a, 4c, 6c, and 6d is shown in the Supplementary Material, Figure S1.
# [3] = Self-assembly by UV-VIS spectrometry in methanol/water mixtures; type: physicochemical; conditions: 0-140 h
# Procedure: The self-assembly of the selected compounds 8a, 12a, 8b, 12b, 4c, 6c, 6d, and 8d was measured using UV absorption in methanol/water mixtures with a constant concentration of the studied compound for 7 days in one-hour intervals on the first day, and in 24 h intervals all following days. The stock solutions of the studied compounds were prepared at a concentration of 1 mg·mL^−1 in water. Then, a series of methanol/water mixtures were prepared starting from a methanol/water ratio 100/0 down to 0/100 in 20% steps. The stock solutions of the studied compounds (0.15 mL) were added separately to each vial containing methanol/water mixtures (3 mL), and the UV spectra were recorded in the wavelength range of 200–400 nm. […] For the compounds 8a, 12a, 12b and 6d, the details are presented in the Supplementary Material; see Figure S2.
# Supramolecular self-assembly was studied on the basis of the UV-VIS spectra of the compounds in several methanol/water mixtures stepwise during the time interval 0-140 h. Here we show compounds 8a, 12a, 12b and 6d as examples, with which the irregularities in the UV-VIS spectra were either well pronounced (8a and 12a; Figure S2), or no substantial irregularity was detected (12b and 6d).
# Figure S2. UV-VIS spectra of 8a (top) and 12a (bottom) measured in the interval 0-140 h.
# During that time interval a new maximum appeared at 300 nm wavelength, and the shape of the curves is different than in any of the other intervals of measurement. […]
# [4] = Cytotoxicity screening test; type: cell-based; conditions: human
# Description: (§11) Description of the experimental procedure used in the cytotoxicity screening test was already published. The following cancer cell lines were used in the investigation: T-lymphoblastic leukemia, CEM; breast carcinoma, MCF7; cervical carcinoma, HeLa; and malignant melanoma, G-361. Human foreskin fibroblasts, BJ, were used as reference cells. All of the above cell lines were obtained from the American Type Culture Collection (Manassas, VA, USA). African green monkey kidney Vero cells were obtained from the European Collection of Cell Cultures (Salisbury, UK) and human T-cell leukemia MT-4 cells were obtained through the NIH AIDS Reagent Program, Division of AIDS, NIAID, NIH, from Dr. Douglas Richman. All cells, but MT-4 cells, were cultured in DMEM (Dulbecco’s Modified Eagle Medium, Sigma, St. Louis, MO, USA). MT-4 cells were maintained in RPMI1640 medium. Media used were supplemented with 10% fetal bovine serum, 2 mM L-glutamine, and 1% penicillin–streptomycin (all Sigma, St. Louis, MO, USA). The cell lines were maintained under standard cell culture conditions at 37 °C and 5% CO2 in a humid environment. Cells were subcultured twice or three times a week using the standard trypsinization procedure.
# [5] = Cytotoxicity screening test, reference cells; type: cell-based; conditions: BJ foreskin fibroblasts; BJ human fibroblasts
# Description: as §11
Gel formation [2],Irregularity in UV-VIS spectra (self-assembly) [3],Compound,inhibition at 25 µg/mL (Bacillus cereus),inhibition at 50 µg/mL (Bacillus cereus),inhibition at 100 µg/mL (Bacillus cereus),inhibition at 25 µg/mL (Enterococcus faecalis; c = 25 µg·mL-1),inhibition at 50 µg/mL (Enterococcus faecalis),inhibition at 100 µg/mL (Enterococcus faecalis),inhibition at 25 µg/mL (Escherichia coli; c = 25 µg·mL-1),inhibition at 50 µg/mL (Escherichia coli),inhibition at 100 µg/mL (Escherichia coli),inhibition at 25 µg/mL (Pseudomonas aeruginosa),inhibition at 50 µg/mL (Pseudomonas aeruginosa),inhibition at 100 µg/mL (Pseudomonas aeruginosa),inhibition at 25 µg/mL (Staphylococcus aureus; c = 25 µg·mL-1),inhibition at 50 µg/mL (Staphylococcus aureus),inhibition at 100 µg/mL (Staphylococcus aureus),further results
,,"CC(C)OC(=O)[C@H](C)N[P@](=O)(CO[C@H](C)Cn1cnc2c(N)ncnc21)Oc1ccccc1 [tenofovir alafenamide, Tenofovir alafenamide, reference compound]",,,,,,,,,,,,,,,,"EC50 ([1]; Human immunodeficiency virus 1, NL43, MT4, read-out: EC50 ± SE against HIV-1): 0.0097 ± 0.0023 µM"
produced a gel in glycerol,,CC1(C)C=C2[C@H]3CC[C@@H]4[C@@]5(C)CCC(=O)C(C)(C)[C@@H]5CC[C@@]4(C)[C@]3(C)CC[C@@]2(C(=O)NCCOCCOCCOCCn2cc(COC(=O)[C@]34CCC(C)(C)C=C3[C@H]3CC[C@@H]5[C@@]6(C)CCC(=O)C(C)(C)[C@@H]6CC[C@@]5(C)[C@]3(C)CC4)nn2)CC1 [4c],2 ± 0.3%,0 to 1%,6 ± 9%,> 62%,50 ± 7.5%,43 ± 6.5%,25 ± 3.8%,34 ± 5.1%,31 ± 4.7%,50 ± 7.5%,47 ± 7%,46 ± 6.8%,11 ± 1.7%,66 ± 9.9%,76 ± 11.4%,Inhibition of the microorganism (Enterococcus faecalis; c = 25 µg·mL-1): 62 ± 9.3 ^e %
produced a gel in ethylene glycol,Irregularity was detected,CC1(C)CC[C@]2(C(=O)O)CC[C@]3(C)C(=CC[C@@H]4[C@@]5(C)CC[C@H](OCc6cn(CCOCCOCCOCCNC(=O)[C@]78CCC(C)(C)CC7C7=CC[C@@H]9[C@@]%10(C)CC[C@H](O)C(C)(C)[C@@H]%10CC[C@@]9(C)[C@]7(C)CC8)nn6)C(C)(C)[C@@H]5CC[C@]43C)C2C1 (stereo partly drawn) [8a],0 to 1%,0 to 1%,0 to 1%,17 ± 2.6%,28 ± 4.2%,32 ± 4.8%,> 50%,24 ± 3.6%,0 to 1%,21 ± 3.2%,17 ± 2.6%,14 ± 2.1%,> 50%,55 ± 8.3%,68 ± 10.2%,"Inhibition of the microorganism (Escherichia coli; c = 25 µg·mL-1): 51 ± 7.7 ^e %; Inhibition of the microorganism (Staphylococcus aureus; c = 25 µg·mL-1): 52 ± 7.8 ^e %; EC50 ([1]; Human immunodeficiency virus 1, NL43, MT4, HIV-1 NL4-3 in MT-4 cells, read-out: EC50 ± SE against HIV-1): 50.6 ± 7.8 µM"
produced a gel in glycerol,No substantial irregularity was detected,CC1(C)C=C2C3CC[C@@H]4[C@@]5(C)CC[C@H](OCc6cn(CCOCCOCCOCCNC(=O)[C@]78CCC(C)(C)C=C7[C@H]7CC[C@@H]9[C@@]%10(C)CCC(=O)C(C)(C)[C@@H]%10CC[C@@]9(C)[C@]7(C)CC8)nn6)C(C)(C)[C@@H]5CC[C@@]4(C)[C@]3(C)CC[C@@]2(C(=O)O)CC1 (stereo partly drawn) [6d],1 ± 0.2%,0 to 1%,3 ± 0.5%,2 ± 0.3%,14 ± 2.1%,28 ± 4.2%,9 ± 1.4%,13 ± 2%,0 to 1%,0 to 1%,0 to 1%,0 to 1%,25 ± 3.8%,31 ± 4.7%,0 to 1%,IC50 ([4]; CEM T-lymphoblastic leukemia cells): > 50 µM; IC50 ([4]; G-361 malignant melanoma cells): 20 ± 0.6 µM; IC50 ([4]; HeLa cervical carcinoma cells): > 50 µM; IC50 ([4]; MCF7 breast carcinoma cells): > 50 µM; IC50 [5]: > 50 µM

# From paper PMC8391127, “Triterpenoid–PEG Ribbons Targeting Selectivity in Pharmacological Effects” (Biomedicines, 2021)
